# Results taken from patent US20120053189A1, “BTK INHIBITORS FOR THE TREATMENT OF IMMUNE MEDIATED CONDITIONS” (Pharmacyclics, Inc., priority 2010, published 2012).
# “Also recorded” adds a separate entry of the source. Read-outs that look alike come from different tables or passages of the source.
# Columns and labels:
# VEGFR2 = VEGFR2 (Homo sapiens, UniProt P35968); test: kinase selectivity, VEGFR2; assay type: biochemical
# CD20+ B cells [1] = test: human B cell activation following BCR stimulation by anti-IgM (CD69); assay type: cell-based; conditions: read-out: EC50 of inhibition of human B cell activation
# Procedure: (§1) CD20+ B and CD3+ T cells were purified by negative selection (RosetteSep, >90% purity) from Buffy coat PBMC and viably frozen in 10% DMSO. Cells were thawed at 37° C. and maintained in growth media (RPMI media containing 10% FCS). B cells were stimulated with goat anti-human IgM F(ab′)2 (10 ug/ml, Invitrogen) and T cells were stimulated with anti-CD3/CD28 coated beads (Dynabeads) at a 1:1 bead/cell ratio. Cells were stained with PE-CD69 (BD) and analyzed by flow cytometry, gating on viable lymphocytes. […] For washout experiments, cells were rinsed 3× in 10 volumes of growth media, a protocol that was confirmed to completely wash away inhibition of BCR signaling by a reversible Btk inhibitor.
# [2] = system: murine collagen-induced arthritis (CIA) model; test: murine collagen-induced arthritis (CIA) model; assay type: in vivo, mice; conditions: for inflammatory synovitis, pannus formation, synovial fluid cytokines, cartilage damage and bone erosion: preventive and established murine CIA models
# Procedure: Male mice 7 weeks of age were purchased from Harlan Laboratories, and acclimated for a minimum of 3 days. Mice were immunized on Day 0 with 150 μg of bovine collagen II (Chondrex Inc) in CFA (Sigma), and boosted with 100 μg of bovine collagen II in IFA on day 21. Fore and hind paws of mice were scored daily with a clinical scoring system using the following criteria:
# 0=normal 1=1 hind or fore paw joint affected • with minimal diffuse swelling and erythema (redness of the skin due to congestion of the capillaries)
# 2=2 hind or fore paw joints affected • with minimal diffuse swelling and erythema (redness of the skin due to congestion of the capillaries)
# 3=3 hind or fore paw joints affected • with minimal diffuse swelling and erythema (redness of the skin due to congestion of the capillaries)
# 4=minimum of 4 joints affected • marked diffuse swelling and erythema (redness of the skin due to congestion of the capillaries)
# 5=minimum entire paw, • unable to flex (Severe diffuse swelling and erythema redness of the skin due to congestion of the capillaries
# Mice were enrolled randomly into treatment groups when a minimum mean paw score of 1.0 was established. The treatments started on the day of enrollment and continued for 12 days. Clinical scores were monitored daily for each animal in the treatment groups.
# in vivo = conditions: CDIGS, rat
# CD20+ B cells [3] = test: B cell viability; assay type: cell-based, human; conditions: concentrations below 10 μM
# Procedure: as §1
# [4] = system: human whole blood basophils; test: whole blood basophil assay, CD63 after anti-IgE stimulation; assay type: cell-based; conditions: for EC50: human whole blood basophils, read-out: EC50 of inhibition of anti-IgE mediated upregulation of CD63
# Procedure: Fresh whole blood was collected on the day of the experiment from a healthy volunteer. Whole blood is stimulated with 10 ng/mL of rhIL-3 (Invitrogen) and […] of anti-IgE (Beckman Coulter) in Basophil Stimulation Buffer (20 mM HEPES pH 7.4, 125 mM NaCl, 5 mM KCl, 2.5 mM CaCl2, 1 mM MgCl2, 0.5% Glucose, 0.1% BSA) at 37° C. for 15 min. The reaction was terminated by the addition of EDTA. The stimulated whole blood was then stained with a fluorescent three-antibody cocktail (FITC-Anti-CD63/PerCP-Anti-HLA-DR/PE-Anti-CD123) (BD Biosciences) at room temperature in the dark for 15 min. Following staining, blood was treated with 1×FACS Lysing solution (BD Biosciences) for 15 minutes to lyse the RBC. The lysed RBC supernatant was removed following centrifugation for […]. The cell pellet was resuspended and fixed in 0.5% paraformaldehyde in PBS. The percentage of basophil degranulation was determined by the % of CD63 cells that were CD123 positive and HLA-DR negative.
# JAK3 = target: T1, JAK3 (Homo sapiens, UniProt P52333); test: kinase selectivity, JAK3; assay type: biochemical
# T1 sequence (P52333 1-1124): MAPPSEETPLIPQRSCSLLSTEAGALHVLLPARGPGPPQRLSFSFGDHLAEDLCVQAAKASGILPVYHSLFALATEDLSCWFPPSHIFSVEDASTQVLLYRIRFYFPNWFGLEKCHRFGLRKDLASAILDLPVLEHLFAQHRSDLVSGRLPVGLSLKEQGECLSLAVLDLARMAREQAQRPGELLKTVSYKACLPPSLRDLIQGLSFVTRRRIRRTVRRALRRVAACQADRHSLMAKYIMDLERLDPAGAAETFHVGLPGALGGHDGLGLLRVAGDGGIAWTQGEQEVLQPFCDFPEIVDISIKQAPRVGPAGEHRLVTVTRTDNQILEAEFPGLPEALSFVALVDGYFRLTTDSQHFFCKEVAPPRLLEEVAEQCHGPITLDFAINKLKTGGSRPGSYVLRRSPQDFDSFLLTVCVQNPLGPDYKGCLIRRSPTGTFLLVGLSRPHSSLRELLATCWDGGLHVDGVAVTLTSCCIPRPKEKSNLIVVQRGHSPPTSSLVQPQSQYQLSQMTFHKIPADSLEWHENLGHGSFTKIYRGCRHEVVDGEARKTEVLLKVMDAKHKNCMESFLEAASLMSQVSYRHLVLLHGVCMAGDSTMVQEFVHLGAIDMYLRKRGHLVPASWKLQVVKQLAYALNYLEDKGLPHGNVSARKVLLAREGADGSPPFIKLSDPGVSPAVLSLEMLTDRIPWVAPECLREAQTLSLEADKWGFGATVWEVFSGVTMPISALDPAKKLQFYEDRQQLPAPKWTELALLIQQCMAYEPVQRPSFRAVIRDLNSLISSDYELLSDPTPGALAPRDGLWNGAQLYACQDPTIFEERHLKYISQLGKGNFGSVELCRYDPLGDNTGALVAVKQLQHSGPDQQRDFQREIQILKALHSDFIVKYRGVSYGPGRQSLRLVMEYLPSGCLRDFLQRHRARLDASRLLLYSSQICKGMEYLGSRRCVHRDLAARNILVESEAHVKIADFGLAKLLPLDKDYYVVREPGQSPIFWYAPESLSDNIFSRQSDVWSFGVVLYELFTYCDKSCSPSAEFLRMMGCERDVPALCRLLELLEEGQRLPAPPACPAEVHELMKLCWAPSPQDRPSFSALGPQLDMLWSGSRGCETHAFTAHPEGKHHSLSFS
# [5] = interspecies scaling of clearance and estimation of efficacious human daily dosage; conditions: FIG. 7
# Procedure: There is an excellent scaling of clearance (dose/AUC) within mice, rats and dogs, and therefore exposure to dose projection in humans is likely precise. Based on interspecies scaling of clearance, the human BW normalized CL/F was determined to be about 2.53 (FIG. 7).
# EGFR = EGFR (Homo sapiens, UniProt P00533); test: kinase selectivity, EGFR; assay type: biochemical
# JAK1 = JAK1 (Homo sapiens, UniProt P23458); test: kinase selectivity, JAK1; assay type: biochemical
# [6] = hepatic extraction ratio in rats; assay type: in vivo; conditions: oral, 1-(AUC systemic÷AUC portal)
# Procedure: The analyses were performed using nominal sample times and a noncompartmental method with uniform weighting. Pharmacokinetic parameter estimates included terminal half-life and area under the concentration-time curve (AUC). Extraction ratios were calculated as 1-(AUC systemic÷AUC portal).
# human monocytes = test: human monocyte cytokine release assay (IgG stimulation); assay type: cell-based; conditions: for release of IL-1β from human monocytes following FcγR stimulation with IgG: FIG. 2
# Procedure: Human monocytes were isolated from Ficoll-gradient purified PBMC from healthy human volunteers using negative selection with EasySep (StemCells) magnetic beads. CD14+monocytes were then stimulated with IFN-gamma for 6 days, and then 2×10^6 cells were plated onto 10 μg/ml of human IgG (R&D Biosystems) coated onto Immulon 4 ELISA plates. […] Supernatants were collected from the plates and cytokines levels were determined with ELISA kits.
# RAW264.7 cells = test: IgG mediated phagocytosis of Zymosan particles; assay type: cell-based, murine; conditions: IgG opsonized Zymosan particles, RAW cells
# Procedure: Prelabeled Zymosan particles were first opsonized with mouse IgG at 37 C for 30 min, and then centrifuged down and washed several times with PBS. The Zymosan particles are the resuspended in PBS.
# in vitro = conditions: human, liver microsomes
# [7] = system: murine collagen-antibody-induced arthritis model (CAIA model); test: murine collagen-antibody-induced arthritis model (CAIA model); assay type: in vivo, DBA/1 mice; conditions: for dose that completely suppressed the development of arthritis: mouse, in vivo
# Procedure: DBA/1 mice were injected intravenously with 2 mg of Arthrogen-CIA 5 mouse anti-bovine collagen (Chondrex) on day 0. Three days later, these mice were injected IP with 50 μg of LPS.
# Mice were monitored for clinical symptoms daily with the criteria below.
# 0=normal 1=1 hind or fore paw joint affected 2=2 hind or fore paw joints affected 3=3 hind or fore paw joints affected 4=moderate (erythema and moderate swelling, or =4 digit joints affected) 5=severe (diffuse erythema and severe swelling entire paw, unable to flex digits)
# Abl = Abl (Homo sapiens, UniProt P00519); test: kinase selectivity, Abl; assay type: biochemical
# Abl, sequence (P00519 whole entry, species assumed): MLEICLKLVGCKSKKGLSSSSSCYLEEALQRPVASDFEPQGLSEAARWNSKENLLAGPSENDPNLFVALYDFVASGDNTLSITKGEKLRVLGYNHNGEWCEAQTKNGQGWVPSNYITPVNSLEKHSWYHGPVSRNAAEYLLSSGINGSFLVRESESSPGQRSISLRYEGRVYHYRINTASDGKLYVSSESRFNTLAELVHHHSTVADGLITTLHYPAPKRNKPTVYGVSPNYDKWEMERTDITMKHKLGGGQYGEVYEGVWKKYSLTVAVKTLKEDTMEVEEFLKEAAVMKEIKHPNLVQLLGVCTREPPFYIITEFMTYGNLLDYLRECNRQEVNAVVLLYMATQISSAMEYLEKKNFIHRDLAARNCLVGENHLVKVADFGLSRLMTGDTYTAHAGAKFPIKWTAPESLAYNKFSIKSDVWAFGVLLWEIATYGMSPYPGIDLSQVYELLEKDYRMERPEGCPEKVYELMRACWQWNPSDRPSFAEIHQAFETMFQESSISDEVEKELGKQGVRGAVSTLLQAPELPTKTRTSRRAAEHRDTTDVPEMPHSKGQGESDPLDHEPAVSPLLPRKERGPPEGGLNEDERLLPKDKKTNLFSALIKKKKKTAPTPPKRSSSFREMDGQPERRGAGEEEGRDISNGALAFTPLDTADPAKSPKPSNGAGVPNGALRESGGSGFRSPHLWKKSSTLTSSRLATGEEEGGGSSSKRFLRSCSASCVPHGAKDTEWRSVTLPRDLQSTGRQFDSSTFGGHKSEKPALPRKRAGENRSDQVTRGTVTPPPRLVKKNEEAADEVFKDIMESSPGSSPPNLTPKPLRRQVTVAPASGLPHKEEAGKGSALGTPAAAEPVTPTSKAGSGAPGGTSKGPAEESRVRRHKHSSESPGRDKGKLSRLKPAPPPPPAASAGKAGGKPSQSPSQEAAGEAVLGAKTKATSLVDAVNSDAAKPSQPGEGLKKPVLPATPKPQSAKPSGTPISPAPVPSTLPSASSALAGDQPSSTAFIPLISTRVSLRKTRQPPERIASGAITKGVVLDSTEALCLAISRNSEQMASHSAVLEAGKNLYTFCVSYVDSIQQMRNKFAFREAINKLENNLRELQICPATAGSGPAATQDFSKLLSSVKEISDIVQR
# JAK2 = JAK2 (Homo sapiens, UniProt O60674); test: kinase selectivity, JAK2; assay type: biochemical
# JAK2, sequence (O60674 whole entry): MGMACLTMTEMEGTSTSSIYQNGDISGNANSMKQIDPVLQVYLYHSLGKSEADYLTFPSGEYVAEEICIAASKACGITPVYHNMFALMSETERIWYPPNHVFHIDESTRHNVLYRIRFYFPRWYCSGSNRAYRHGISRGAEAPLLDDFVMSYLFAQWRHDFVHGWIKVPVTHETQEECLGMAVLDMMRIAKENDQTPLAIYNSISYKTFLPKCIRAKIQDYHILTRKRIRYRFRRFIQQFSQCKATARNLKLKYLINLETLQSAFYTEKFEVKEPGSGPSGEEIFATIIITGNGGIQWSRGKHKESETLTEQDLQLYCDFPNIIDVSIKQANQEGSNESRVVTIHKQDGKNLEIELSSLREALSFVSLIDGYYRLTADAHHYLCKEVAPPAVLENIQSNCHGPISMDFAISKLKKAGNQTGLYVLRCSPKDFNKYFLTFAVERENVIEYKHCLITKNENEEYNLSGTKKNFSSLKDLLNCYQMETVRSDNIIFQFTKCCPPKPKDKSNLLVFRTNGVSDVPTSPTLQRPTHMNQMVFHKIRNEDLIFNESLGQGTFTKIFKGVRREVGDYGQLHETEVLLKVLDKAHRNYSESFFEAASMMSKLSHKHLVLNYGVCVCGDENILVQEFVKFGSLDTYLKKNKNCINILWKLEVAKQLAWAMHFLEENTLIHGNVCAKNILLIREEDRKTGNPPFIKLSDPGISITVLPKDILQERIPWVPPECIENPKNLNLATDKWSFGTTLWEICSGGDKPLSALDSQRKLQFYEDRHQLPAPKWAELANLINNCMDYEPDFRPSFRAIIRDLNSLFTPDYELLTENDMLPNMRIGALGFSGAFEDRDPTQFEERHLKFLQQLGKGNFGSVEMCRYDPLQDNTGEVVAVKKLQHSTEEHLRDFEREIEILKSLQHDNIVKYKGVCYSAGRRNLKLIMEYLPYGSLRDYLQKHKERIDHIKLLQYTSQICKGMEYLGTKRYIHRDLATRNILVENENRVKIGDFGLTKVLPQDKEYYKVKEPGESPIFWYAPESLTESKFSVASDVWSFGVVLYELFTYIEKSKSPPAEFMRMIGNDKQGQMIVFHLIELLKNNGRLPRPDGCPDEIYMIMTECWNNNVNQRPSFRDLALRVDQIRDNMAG
# Btk = Btk (Homo sapiens, UniProt Q06187); test: Btk biochemical assays
# Btk, sequence (Q06187 whole entry): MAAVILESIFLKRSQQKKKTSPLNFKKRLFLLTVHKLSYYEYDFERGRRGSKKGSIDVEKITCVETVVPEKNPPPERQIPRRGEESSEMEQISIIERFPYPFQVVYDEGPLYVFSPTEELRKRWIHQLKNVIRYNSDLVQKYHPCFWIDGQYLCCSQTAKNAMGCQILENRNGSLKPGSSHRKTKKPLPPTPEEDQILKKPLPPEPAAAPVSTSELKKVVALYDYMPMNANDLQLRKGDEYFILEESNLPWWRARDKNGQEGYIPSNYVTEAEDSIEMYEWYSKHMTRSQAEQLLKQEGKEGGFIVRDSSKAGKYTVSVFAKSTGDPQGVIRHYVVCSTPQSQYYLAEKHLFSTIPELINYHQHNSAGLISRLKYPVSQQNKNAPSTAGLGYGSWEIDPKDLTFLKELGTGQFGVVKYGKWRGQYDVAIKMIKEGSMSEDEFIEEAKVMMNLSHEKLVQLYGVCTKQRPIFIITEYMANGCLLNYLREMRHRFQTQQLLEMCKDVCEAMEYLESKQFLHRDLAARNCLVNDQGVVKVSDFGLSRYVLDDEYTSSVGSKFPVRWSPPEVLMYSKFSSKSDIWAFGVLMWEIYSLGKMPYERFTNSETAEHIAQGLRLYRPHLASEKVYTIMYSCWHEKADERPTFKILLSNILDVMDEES
# CD3+ T cells = test: T cell viability; assay type: cell-based, human; conditions: concentrations below 10 μM
# Procedure: as §1
# VEGFR2, sequence (P35968 20-1356, species assumed): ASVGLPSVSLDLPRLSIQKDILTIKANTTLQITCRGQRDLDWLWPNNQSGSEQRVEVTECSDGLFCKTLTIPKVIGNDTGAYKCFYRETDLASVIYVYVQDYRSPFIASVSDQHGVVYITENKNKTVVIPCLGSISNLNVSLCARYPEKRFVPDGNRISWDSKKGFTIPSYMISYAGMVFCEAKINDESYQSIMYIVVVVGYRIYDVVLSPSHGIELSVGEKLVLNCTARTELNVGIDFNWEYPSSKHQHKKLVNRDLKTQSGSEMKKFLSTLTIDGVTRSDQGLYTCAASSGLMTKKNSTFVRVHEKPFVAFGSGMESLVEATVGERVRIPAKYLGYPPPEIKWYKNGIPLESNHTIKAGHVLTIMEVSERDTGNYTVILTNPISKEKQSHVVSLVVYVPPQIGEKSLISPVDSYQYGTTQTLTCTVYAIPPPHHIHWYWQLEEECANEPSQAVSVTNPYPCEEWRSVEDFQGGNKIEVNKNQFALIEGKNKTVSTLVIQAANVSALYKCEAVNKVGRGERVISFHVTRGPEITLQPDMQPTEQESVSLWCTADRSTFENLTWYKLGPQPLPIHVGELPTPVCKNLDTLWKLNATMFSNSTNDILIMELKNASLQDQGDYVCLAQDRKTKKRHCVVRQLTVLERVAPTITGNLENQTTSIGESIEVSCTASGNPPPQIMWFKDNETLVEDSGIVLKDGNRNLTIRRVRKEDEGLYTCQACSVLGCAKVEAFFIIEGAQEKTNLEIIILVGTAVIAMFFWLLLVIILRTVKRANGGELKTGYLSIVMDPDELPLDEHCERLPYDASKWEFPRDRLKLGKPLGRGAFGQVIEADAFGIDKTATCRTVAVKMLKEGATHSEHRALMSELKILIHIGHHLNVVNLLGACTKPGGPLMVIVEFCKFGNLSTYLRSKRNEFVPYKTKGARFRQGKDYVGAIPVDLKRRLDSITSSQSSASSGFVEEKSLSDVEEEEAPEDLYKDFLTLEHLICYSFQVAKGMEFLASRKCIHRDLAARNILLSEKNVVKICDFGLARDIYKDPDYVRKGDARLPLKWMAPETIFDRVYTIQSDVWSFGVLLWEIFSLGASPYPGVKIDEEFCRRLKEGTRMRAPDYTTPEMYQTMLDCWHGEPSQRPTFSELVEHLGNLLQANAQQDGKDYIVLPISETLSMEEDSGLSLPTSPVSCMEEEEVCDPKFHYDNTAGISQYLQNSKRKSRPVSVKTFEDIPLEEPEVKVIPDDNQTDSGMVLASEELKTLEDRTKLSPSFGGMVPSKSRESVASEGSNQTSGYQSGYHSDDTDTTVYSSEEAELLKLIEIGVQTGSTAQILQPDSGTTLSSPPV
smiles,measurement,setting,value
CN(C)C/C=C/C(=O)N1CC[C@@H](n2nc(-c3ccc(Oc4ccccc4)cc3)c3c(N)ncnc32)C1 [Compound 1],inhibition of VEGFR2,VEGFR2,no significant inhibition
same,EC50,CD20+ B cells [1],2 nM
same,time after drug administration at which reversal of clinical arthritis was observed,[2]; 1.6 and 3.2 mg/kg/day,1 days
same,clinical arthritic symptoms,"[2]; 1.6 and 3.2 mg/kg/day, treatment for 12 days",reversed clinical arthritic symptoms
same,arthritic clinical scores,[2]; FIG. 4,reversal of arthritic clinical scores
same,EC50 of inhibition of overt manifestations of arthritis (clinical arthritic symptoms),"[2]; mice, CIA",0.61 mg/kg/day
same,"inflammatory synovitis, pannus formation, synovial fluid cytokines, cartilage damage and bone erosion",[2],dose-dependently inhibited
same,bioavailability,in vivo; in vivo,24.7%
same,B cell viability,CD20+ B cells [3],did not decrease
same,basophil activation following anti-IgE stimulation,[4]; FIG. 1,basophil activation inhibition
same,EC50,"[4]; listed as (E)-1-4R)-3-(4-amino-3-(4-phenoxyphenyl)-1H-pyrazolo[3,4-d]pyrimidin-1-yl)pyrrol",~92 nM
same,inhibition of JAK3,JAK3,no significant inhibition
same,allometric scaling of CL/F vs. Body Weight in multiple species,[5],linear
same,inhibition of EGFR,EGFR,no significant inhibition
same,inhibition of JAK1,JAK1,no significant inhibition
same,hepatic extraction ratio,[6],0.289
same,concentration inhibiting cytokine release from human monocytes,human monocytes,20 to 100 nM
same,release of IL-1β from human monocytes following FcγR stimulation with IgG,"human monocytes; listed as (E)-1-(R)-3-(4-amino-3-(4-phenoxyphenyl)-1H-pyrazolo[3,4-d]pyrimidin-1-yl)pyrro",suppressed the release of IL-1b; also recorded: monocyte release inhibition of IL-1β
same,concentration up to which IgG-mediated phagocytosis was not inhibited,RAW264.7 cells,"> 10,000 nM"
same,half-life,in vitro,19.2 min
same,clinical arthritis,"[7]; 0.8, 1.6 and 3.2 mg/kg/day, day 0 to day 14",completely prevented and suppressed clinical arthritis
same,dose that completely suppressed the development of arthritis,[7],0.8 mg/kg/day
same,inhibition of Abl,Abl,no significant inhibition
same,inhibition of JAK2,JAK2,no significant inhibition
same,IC50,Btk,1 to 2 nM
same,selectivity as inhibitor of Btk,Btk; compared with Compound 2 or dasatinib,more selective inhibitor of Btk
same,T cell viability,CD3+ T cells,did not decrease
"C=CC(=O)N1CCC[C@@H](n2nc(-c3ccc(Oc4ccccc4)cc3)c3c(N)ncnc32)C1 [Compound 2, reference compound]",EC50,CD20+ B cells [1],2 nM
same,"inflammatory synovitis, pannus formation, synovial fluid cytokines, cartilage damage and bone erosion",[2],dose-dependently inhibited
same,bioavailability,"in vivo; plasma, oral",22.8%
same,B cell viability,CD20+ B cells [3],did not decrease
same,EC50,[4],20 to 100 nM
same,release of IL-1β from human monocytes following FcγR stimulation with IgG,"human monocytes; listed as (R)-1-(3-(4-amino-3-(4-phenoxyphenyl)-1H-pyrazolo[3,4-d]pyrimidin-1-yl)piperidin)",suppressed the release of IL-1b; also recorded: monocyte release inhibition of IL-1β
same,dose that completely suppressed the development of arthritis,[7],6.25 mg/kg/day
same,T cell viability,CD3+ T cells,did not decrease
"C[C@@H]1C[C@H]2[C@@H]3CCC4=CC(=O)C=C[C@]4(C)[C@@]3(F)[C@@H](O)C[C@]2(C)[C@@]1(O)C(=O)CO [dexamethasone, reference compound]",average clinical scores,"[7]; 0.2 mg/kg, day 14",1
"CN(Cc1cnc2nc(N)nc(N)c2n1)c1ccc(C(=O)N[C@@H](CCC(=O)O)C(=O)O)cc1 [methotrexate, reference compound]","clinical arthritis, disease course",[2]; 1.5 mg/kg/day,stabilized disease without further progression of arthritic swelling
